Molecular target: T1, recombinant Vps34 (Homo sapiens, UniProt Q8NEB9)
T1 construct: purchased Invitrogen PV5126
Test: Phosphorylation of phosphatidylinositol (PI) by Vps34 in vitro, ADP detected by TR-FRET (HTRF Transcreener ADP)
Assay type: biochemical
Conditions: 10 μM ATP, 55 μg/ml PI, approximately 3 nM Vps34, 1 hour at ambient temperature; absolute IC50, mean of two independent experiments; read-out: IC50 activity range

T1 sequence (Q8NEB9 whole entry): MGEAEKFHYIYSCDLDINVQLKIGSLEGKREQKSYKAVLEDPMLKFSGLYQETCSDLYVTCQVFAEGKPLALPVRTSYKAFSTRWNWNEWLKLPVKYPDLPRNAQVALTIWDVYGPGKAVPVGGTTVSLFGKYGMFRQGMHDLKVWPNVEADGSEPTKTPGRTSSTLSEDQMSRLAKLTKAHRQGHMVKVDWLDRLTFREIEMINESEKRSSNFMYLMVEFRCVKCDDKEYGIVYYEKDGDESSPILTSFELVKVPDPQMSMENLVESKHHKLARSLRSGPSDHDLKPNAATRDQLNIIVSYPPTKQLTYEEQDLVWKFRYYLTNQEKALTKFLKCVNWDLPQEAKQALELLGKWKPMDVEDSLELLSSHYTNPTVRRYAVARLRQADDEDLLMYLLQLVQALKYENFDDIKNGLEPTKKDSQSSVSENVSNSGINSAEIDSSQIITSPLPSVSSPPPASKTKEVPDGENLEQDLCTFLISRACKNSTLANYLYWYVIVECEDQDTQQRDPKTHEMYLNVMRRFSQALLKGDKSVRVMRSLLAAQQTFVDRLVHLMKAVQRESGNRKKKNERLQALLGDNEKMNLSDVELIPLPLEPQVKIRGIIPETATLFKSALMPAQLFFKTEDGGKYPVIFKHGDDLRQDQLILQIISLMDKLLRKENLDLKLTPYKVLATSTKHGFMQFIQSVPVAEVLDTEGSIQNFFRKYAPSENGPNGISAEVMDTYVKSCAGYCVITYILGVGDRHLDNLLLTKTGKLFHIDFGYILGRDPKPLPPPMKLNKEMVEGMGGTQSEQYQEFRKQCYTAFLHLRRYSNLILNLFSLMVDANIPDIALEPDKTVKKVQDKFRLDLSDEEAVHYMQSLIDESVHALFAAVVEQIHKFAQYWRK

Row | SMILES | IC50
1 | C[C@@H]1COCCN1c1cc(=O)n2c(n1)N(CC(=O)C1CCNCC1)[C@H](C(F)(F)F)CC2 [Example 265, (S)-2-((R)-3-Methyl-morpholin-4-yl)-9-(2-oxo-2-piperidin-4-yl-ethyl)-8-trifluoromethyl-6,7,8,9-tetrahydro-pyrimido[1,2-a]-pyrimidin-4-one] | 10 to 100 nM
2 | C[C@@H]1COCCN1c1cc(=O)n2c(n1)N(Cc1cocn1)[C@H](C(F)(F)F)CC2 [Example 103, (S)-2-((R)-3-Methyl-morpholin-4-yl)-9-oxazol-4-ylmethyl-8-trifluoromethyl-6,7,8,9-tetrahydro-pyrimido[1,2-a]-pyrimidin-4-one] | < 10 nM

— US11739100B2, “2,3-dihydro-1h-imidazo{1,2-a}pyrimidin-5-one and this 1,2,3,4-tetrahydropyrimido{1,2-a}pyrimidin-6-one derivatives comprising a substituted morpholine, preparation thereof and pharmaceutical use thereof” (SANOFI, priority 2012, dated 2023)
